Tests used:
[1] = microbe, parasite or virus in culture; conditions: Mycobacterium tuberculosis, 72 h, read-out: pIC50 (converted)
[2] = microbe, parasite or virus in culture; conditions: Mycobacterium tuberculosis, 96 h, read-out: pIC50 (converted)

Structure (SMILES) | IC50 [1] | IC50 [2]
CN1CCC(CNC(=O)c2cccc(C(F)(F)F)c2)c2ccccc21 (stereo not drawn) | 45.5 µM | > 50.1 µM
CCCc1ccc(N2CCN(Cc3nc4ccccc4n3C)CC2)cc1 | 26 µM | > 50.1 µM
COc1ccc(C2SCC(=O)N2c2ncc(C)s2)cc1 (stereo not drawn) | 5.8 µM | 30.1 µM
Cc1cnc(N2C(=O)CSC2c2ccc(N(C)C)cc2)s1 (stereo not drawn) | 7.14 µM | 5.45 µM
CC(C)Oc1cccc(C(O)CNC(=O)NCc2cccs2)c1 (stereo not drawn) | > 50.1 µM | 30.8 µM
Cc1ccc(C(=O)NCCCN(C)S(C)(=O)=O)cc1-n1cccc1 | 30.9 µM | > 50.1 µM
Cc1ccc(NC(C)C(=O)NCc2cccs2)cc1Cl (stereo not drawn) | 5.25 µM | 5.63 µM
COCCOCCNC(=O)C(C)Oc1ccccc1C(F)(F)F (stereo not drawn) | > 50.1 µM | > 50.1 µM
CC(C)c1nnc(CNc2ccc(SC(F)(F)F)cc2)o1 | 19.3 µM | 18.9 µM
FC(F)Sc1ccc(NCc2nnc(C3CC3)o2)cc1 | 11.8 µM | 46.7 µM
FC(F)(F)Sc1ccc(NCc2nnc(C3CC3)o2)cc1 | 36.4 µM | 14.3 µM
Cc1noc(COCC(=O)N2CCCCC2c2nccs2)n1 (stereo not drawn) | > 50.1 µM | > 50.1 µM
COC(=O)c1ccc(N2CCC(N(C)c3ccccc3)CC2)nn1 | 37 µM | 12.3 µM
COC(=O)c1ccc(N2CCC(C(O)c3ccccc3)CC2)nn1 (stereo not drawn) | 24.3 µM | 20.5 µM
CC(C)(C)Cc1nnc(NCc2ccsc2)o1 | > 50.1 µM | 12.5 µM
CC(C)Cc1nnc(NCc2ccsc2)o1 | 3.95 µM | 35.4 µM
N#Cc1cccnc1NC1CCN(c2ccccc2OC(F)F)C1=O (stereo not drawn) | > 50.1 µM | 1.27 µM
N#Cc1ccc(NCCC2CCN(CC(F)(F)F)CC2)nc1 | 15.8 µM | 14 µM
CCc1nc(CN(C)Cc2nnc(-c3cccs3)o2)cs1 | 12.2 µM | 8.56 µM
CCc1nc(CN(C)Cc2ncc(-c3cccs3)o2)cs1 | 31.1 µM | 31.4 µM
O=C(c1[nH]nc(C2CC2)c1Cl)N1CCCC1 | > 50.1 µM | > 50.1 µM
COC(=O)c1cnc(/C=C/c2ccc(C(=O)O)cc2)s1 | 26.6 µM | 27.3 µM
CC1(C)CCC(C(=O)N2CCCO2)c2ccccc21 (stereo not drawn) | > 50.1 µM | > 50.1 µM
Cc1nc(C2CCCN2Cc2cc(Cl)c3c(c2)OCCO3)no1 (stereo not drawn) | 22.3 µM | 15.9 µM
CCC(CO)NC(=O)Cc1ccc(NC(=O)CC2=CCCCC2)cc1 (stereo not drawn) | > 50.1 µM | > 50.1 µM

Structure (SMILES) | IC50 [1] | IC50 [2]
CC(=O)Nc1nc(C(=O)NCCOc2ccc(C)cc2)cs1 | > 50.1 µM | > 50.1 µM
CC(CNC(=O)c1cnccn1)Oc1cccc(Br)c1 (stereo not drawn) | 0.211 µM | > 50.1 µM
CC(CNC(=O)c1ccon1)Oc1cccc(Br)c1 (stereo not drawn) | 25.7 µM | 32.6 µM
CNC(=O)c1cccc(CNC(C)c2ccc(F)cc2N(C)C)c1 (stereo not drawn) | > 50.1 µM | > 50.1 µM
O=S(=O)(CCc1ccccc1)Cc1nc(C2CC2)no1 | 10.6 µM | 10.7 µM
Cc1cc(CNc2ccc(C(F)(F)F)cc2)no1 | 19.8 µM | 15.6 µM
CC(C)c1ccc(O)c(C(=O)NC2CCN(c3ncccn3)CC2)c1 | 20.4 µM | 24.7 µM
O=C(CCc1ccc(Br)cc1)NCCc1nnc[nH]1 | > 50.1 µM | > 50.1 µM
COc1c(Br)cccc1CCNC(=O)c1csnn1 | > 50.1 µM | > 50.1 µM
CCOC(C)c1nc(Cn2cccn2)cs1 (stereo not drawn) | > 50.1 µM | > 50.1 µM
Cc1oc(-c2ccc(Cl)cc2)nc1C(=O)NC1=NCCS1 | > 50.1 µM | > 50.1 µM
N#Cc1ccc(NCc2cccc(COC3CCOCC3)c2)nc1 | > 50.1 µM | > 50.1 µM
CCN1CCN(S(=O)(=O)c2c[nH]c(C(C)C)n2)c2ccccc21 | > 50.1 µM | > 50.1 µM
CC(C)CC(C(=O)N(C)Cc1ncnn1C)N1CCCCC1=O (stereo not drawn) | > 50.1 µM | > 50.1 µM
CC(c1ccccc1)N(C)C(=O)CN1CCCc2cccc(F)c21 (stereo not drawn) | 31.2 µM | > 50.1 µM
Cc1cnn(CC2CCCN2c2ncnc3c2CCC3)c1 (stereo not drawn) | > 50.1 µM | > 50.1 µM
COc1ccc(CNCCc2ccn(-c3ccccc3)n2)cc1O | > 50.1 µM | > 50.1 µM
CCCC(=O)NC(C)(C)Cc1ccccc1OC | 3.52 µM | > 50.1 µM
O=C(c1cccnc1)N(CCO)Cc1cc(Br)ccc1F | > 50.1 µM | > 50.1 µM
Cc1ccc(OCCSCCn2nc3ccccn3c2=O)cc1 | > 50.1 µM | > 50.1 µM
O=C(NCC1(c2ccc(F)cc2)CC1)N1CCC2(CCOC2)C1 (stereo not drawn) | > 50.1 µM | > 50.1 µM
OCC(CO)Nc1ccc2c(Cl)ccc(Cl)c2n1 | > 50.1 µM | > 50.1 µM
COCCC(=O)N1CCN(CC2CC2)c2ccccc21 | 11.7 µM | > 50.1 µM
Cc1cccc(-c2nnc(C(C)N3CCn4c(C)nnc4C3)o2)c1 (stereo not drawn) | > 50.1 µM | > 50.1 µM
CC(c1ccccn1)N(C)C(=O)NCCn1c(=O)oc2ccccc21 (stereo not drawn) | > 50.1 µM | > 50.1 µM

Structure (SMILES) | IC50 [1] | IC50 [2]
CC(C)OCCn1nnnc1Cc1ccc(Br)cc1 | 35.5 µM | 14.5 µM
CN(Cc1cnccn1)S(=O)(=O)c1ccc(C(F)(F)F)nc1 | > 50.1 µM | > 50.1 µM
COC(=O)CN(C)Cc1cc(Br)cs1 | > 50.1 µM | > 50.1 µM
Clc1ccc(Cc2nc(CNCCn3cccn3)cs2)cc1 | 22.8 µM | 24.8 µM
O=C(NCC(CO)Cc1ccc(Cl)cc1)c1ccncc1Cl (stereo not drawn) | > 50.1 µM | > 50.1 µM
COc1cccc(CNCc2cccnc2-n2cccn2)c1OC | > 50.1 µM | > 50.1 µM
Cc1nc(C2CN(Cc3ccc(F)cc3Br)CCO2)no1 (stereo not drawn) | 33 µM | 11.2 µM
Fc1ccc(C(NCc2nnc(-c3ccco3)o2)C2CCC2)cc1 (stereo not drawn) | 0.884 µM | 4.62 µM
CN(C)c1cc2c(nn1)CCN(C(=O)c1cc3ccccc3[nH]c1=O)C2 | > 50.1 µM | > 50.1 µM
COc1ccc(C(=O)NCCCC2(C3OCCO3)CCOCC2)cc1 | > 50.1 µM | > 50.1 µM
Cc1cnn(CCNCCCOc2ccc3c(c2)OCO3)c1 | 13.9 µM | 13.6 µM
FC(F)Oc1ccc(NCc2nc(C3CC3)no2)c(OC(F)F)c1 | 24.2 µM | > 50.1 µM
COc1ccc(COCC(O)CN(C)c2ccc(C)cc2C)cc1 (stereo not drawn) | 16 µM | 16.8 µM
CN(CCS(=O)(=O)c1cc(Cl)ccc1Cl)CC(N)=O | 24.7 µM | > 50.1 µM
Cc1ccc(NCc2ncc(C(C)(C)C)o2)c(Cl)c1 | 8.32 µM | 9.14 µM
CCOC1CCN(CCc2nc(-c3cccc(Cl)c3)no2)CC1 | 32.4 µM | 28.2 µM
O=C(c1c[nH]c2ccccc2c1=O)N1CCSCC1 | 27.8 µM | > 50.1 µM
CCCc1nn(Cc2ccc(Br)s2)c(=O)o1 | 31.8 µM | 25.4 µM
CCN(CC)S(=O)(=O)c1ccc(CNC(=O)c2cc(C)on2)cc1 | > 50.1 µM | 26.2 µM
CC(C)N(CCNC(=O)c1[nH]nc2ccc(I)cc12)C(C)C | 17.9 µM | 15.8 µM
Cc1nnc(SCCC(=O)N(C)Cc2c(F)cccc2Cl)[nH]1 | > 50.1 µM | > 50.1 µM
Cc1nnc(SCCC(=O)N(C)Cc2ccc(F)cc2F)[nH]1 | > 50.1 µM | > 50.1 µM
Cc1nnc(SCCC(=O)N(C)Cc2ccc(Cl)s2)[nH]1 | > 50.1 µM | 27.3 µM
CN(Cc1cccc(OC(F)(F)F)c1)C(=O)c1cnsn1 | 24.3 µM | 33.3 µM
N#Cc1ccc(NC2CCN(c3ncccn3)CC2)cc1C(F)(F)F | 12.2 µM | 6.68 µM

Structure (SMILES) | IC50 [1] | IC50 [2]
CC(C)c1nsc(NC2CCOC3(CCCC3)C2)n1 (stereo not drawn) | 12 µM | 6.74 µM
CC(C)CCC(C)NC(=O)Nc1ccccn1 (stereo not drawn) | 13.6 µM | 5.47 µM
N#Cc1cc(F)c(NCCc2ccc(F)cc2)c(F)c1 | > 50.1 µM | 22.5 µM
CC(Cn1cccn1)NCc1csc(-c2ccc3c(c2)OCO3)n1 (stereo not drawn) | 1.35 µM | > 50.1 µM
CCc1nc(CNc2ccc(F)cc2I)no1 | 3.04 µM | 2.44 µM
CC(C)CCOc1ccc(C(C)NC(=O)Cn2cccnc2=O)cc1 (stereo not drawn) | 8.35 µM | 13.2 µM
Cc1ccn(-c2ccc(NCc3ccccc3F)nn2)n1 | 32.8 µM | 7.29 µM
CCc1nc(C2CCCN2C(=O)CCCOc2cccc(F)c2)no1 (stereo not drawn) | > 50.1 µM | > 50.1 µM
COCCN1CCN(C(C)C(=O)Nc2ccnn2C(C)C)CC1 (stereo not drawn) | > 50.1 µM | > 50.1 µM
CC(C)Oc1ccc(CSc2nnc(CN3CCCC3=O)o2)cc1 | 43.5 µM | 14.5 µM
CC(C)c1cc(C(=O)N2CCN(Cc3ccsc3)CC2)n[nH]1 | 28.4 µM | 39.7 µM
c1ccc2oc(NC3CCCN(Cc4noc(C5CC5)n4)C3)nc2c1 (stereo not drawn) | 24.9 µM | 13.5 µM
CN(C)CCCN1CC2(CCN(C3CCCOC3)CC2)OC1=O (stereo not drawn) | > 50.1 µM | > 50.1 µM
CN(C(=O)CC1=CCCCC1)C1CCCN(C2Cc3ccccc3C2)C1 (stereo not drawn) | > 50.1 µM | > 50.1 µM
O=C(Cn1cccn1)N1CCC(Cn2cc(-c3ccsc3)nn2)CC1 | > 50.1 µM | > 50.1 µM
CCc1ncc(-c2cn(CCSc3ncn[nH]3)nn2)cn1 | > 50.1 µM | > 50.1 µM
Cc1csc(CN(C)CCOc2ccccc2)n1 | 23 µM | 20.5 µM
c1ccc(CCc2n[nH]c(C3CCC3)n2)cc1 | > 50.1 µM | > 50.1 µM
Cc1[nH]c(=O)[nH]c(=O)c1CN1CCCC(CCc2ccccc2F)C1 (stereo not drawn) | > 50.1 µM | > 50.1 µM
CCc1nn(C)c(Cl)c1CN1CCN(c2ccc(C(N)=O)cn2)CC1 | > 50.1 µM | > 50.1 µM
Cc1cc(Cl)ccc1C(=O)C1CCCN(Cc2cnc(N(C)C)s2)C1 (stereo not drawn) | 45.7 µM | 40.8 µM
CC(C)c1nccn1C(C)C(=O)N1CCN(c2cnccn2)CC1 (stereo not drawn) | > 50.1 µM | > 50.1 µM
O=C(O)[C@@H]1CN(Cc2ccc(-c3cc[nH]n3)s2)C[C@H]1C1CC1 | > 50.1 µM | > 50.1 µM
CC(C)NCc1nc(-c2ccc3c(c2)OCO3)c[nH]1 | > 50.1 µM | > 50.1 µM

Source: ChEMBL document CHEMBL3988442, “University of Dundee, Small-Polar-MMV Screening Library” (2021)
